Experimental findings from ChEMBL document CHEMBL1201862, “PubChem BioAssay data set” (2004) are described below.

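1) Cells in 96-well plates. 2) Compound, 48 h, 5 concentrations. 3) Linear interpolation between surrounding doses. 4) Unreached endpoint = highest concentration. GI50 is the concentration that inhibits growth by half.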 Calls of active or inactive are those of the source. No stated cut-off is given here; in the data, active = GI50 up to about 1.1 µM and inactive = higher. Bounds are passed on as bounds.

Some test systems named below: LOX IMVI; HCT-15; NCI/ADR-RES; A549; RXF 393; IGROV-1; NCI-H226; MDA-N; Malme-3M; 786-0; CCRF-CEM; MOLT-4; HCT-116; BT-549; MDA-MB-435; SNB-75; CAKI-1; U-251; SK-OV-3; HOP-92.
What all share (assay): NCI-60 cell line screen, 48 h

Regarding `O=C1CCCC2=C1CC1=C(CCCC1=O)N2c1ccc(Cl)cc1`, the GI50 was > 100 µM (inactive) in the assay on LOX IMVI; above 100 µM in the assay with HCT-15; > 100 µM (inactive) in the assay with NCI/ADR-RES; > 100 µM (inactive) with A549; > 100 µM (inactive) in the assay with RXF 393; > 100 µM (inactive) in the assay with IGROV-1. Moreover, the GI50 with NCI-H226 was > 100 µM (inactive); in the assay with MDA-N it was > 100 µM (inactive); with Malme-3M, > 100 µM (inactive); with 786-0, > 100 µM (inactive); with CCRF-CEM it was 69.7 µM (inactive); with MOLT-4 it was 94.6 µM (inactive). Also, the GI50 in the assay with HCT-116, with BT-549, in the assay on MDA-MB-435, with SNB-75, with CAKI-1 and in the assay on U-251 was > 100 µM (inactive) throughout. Further, the GI50 with SK-OV-3 was > 100 µM (inactive).

Turning to `O=[N+]([O-])c1cn[n+]([O-])c2ccccc12`, the GI50 is 6.67 µM (inactive) in the assay on LOX IMVI; 2.06 µM with HCT-15; 5.14 µM (inactive) with NCI/ADR-RES; 12 µM (inactive) in the assay on A549; 7.36 µM (inactive) in the assay with NCI-H226; 13.6 µM (inactive) with MDA-N. Also, the GI50 was 15.4 µM (inactive) in the assay on Malme-3M; 12.7 µM (inactive) in the assay on HOP-92; 2.43 µM (inactive) with 786-0; 2.74 µM (inactive) with CCRF-CEM; 1.71 µM (inactive) with MOLT-4; 1.24 µM (inactive) in the assay with HCT-116. For the same compound, the GI50 with BT-549 is 5.22 µM (inactive); in the assay on MDA-MB-435, 13.8 µM (inactive); with CAKI-1, 2.56 µM (inactive); in the assay with U-251, 4.19 µM (inactive); in the assay on SK-OV-3, 13.2 µM (inactive).

As to `COc1cc(C2SCC(=O)N2c2ccccc2Cl)cc(OC)c1OC` (stereo not given), the GI50 with LOX IMVI was > 100 µM (inactive); in the assay on HCT-15 it was above 100 µM; in the assay on NCI/ADR-RES, 88.5 µM (inactive); in the assay with A549, > 100 µM (inactive); in the assay with IGROV-1 it was > 100 µM (inactive); in the assay with NCI-H226, > 100 µM (inactive). Besides, the GI50 is 19.4 µM (inactive) in the assay with MDA-N; > 100 µM (inactive) in the assay on HOP-92; > 100 µM (inactive) in the assay with 786-0; 80.4 µM (inactive) in the assay with CCRF-CEM; > 100 µM (inactive) with HCT-116; 54 µM (inactive) in the assay on BT-549. Moreover, the GI50 in the assay with MDA-MB-435 was 23.7 µM (inactive); in the assay on CAKI-1 it was > 100 µM (inactive); in the assay on U-251, > 100 µM (inactive); with SK-OV-3, > 100 µM (inactive).

For the compound `CCOc1ccc(/N=N/C2C(=O)N(C(=O)CC(=O)Nc3ccc(C)cc3)N=C2C)cc1` (stereo not given), the GI50 in the assay with LOX IMVI was 14.6 µM (inactive); in the assay on HCT-15, 38.1 µM; with NCI/ADR-RES, 24.4 µM (inactive); in the assay on A549, 34.7 µM (inactive); with IGROV-1, 15.9 µM (inactive); in the assay on NCI-H226, 26.3 µM (inactive). For the same compound, the GI50 is 2.7 µM (inactive) with MDA-N; 47.5 µM (inactive) in the assay with Malme-3M; 16.7 µM (inactive) in the assay with HOP-92; 16 µM (inactive) in the assay on 786-0; 43.6 µM (inactive) with CCRF-CEM; 14.7 µM (inactive) with MOLT-4. Besides, the GI50 was 12.4 µM (inactive) in the assay on HCT-116; 23.6 µM (inactive) with BT-549; 2.94 µM (inactive) with MDA-MB-435; 8.02 µM (inactive) with SNB-75; 26.5 µM (inactive) in the assay on CAKI-1; 15.1 µM (inactive) with U-251.
